Measured values as given in patent US10208016B2, “1-sulfonyl piperidine derivatives as modulators of prokineticin receptors” (TAKEDA PHARMACEUTICAL COMPANY LIMITED, priority 2013, dated 2019).

Each compound was assayed against human PKR1 receptors (Homo sapiens (Human), UniProt Q8TCW9) (assay: PKR1 antagonist calcium mobilisation assay (FLIPR), block of PK1-mediated intracellular calcium release). Details: RBL2H3 cells expressing human PKR1; stimulation with PK1 at EC80; calcium fluorescence.
Type: cell-based
Description: Prokineticin receptor 1 (PKR1) antagonists may be functionally assessed by measurement of change in intracellular calcium levels induced by Gq mediated increase in inositol triphosphate (IP3) levels. The ability of a compound to block the intracellular release of calcium mediated by PK1 in RBL2H3 cells expressing human PKR1 receptors is determined as a measure of the compound's antagonist activity in vitro.
Approximately 10,000 cells per assay well are seeded in normal culture medium in a 384 well plate (Corning). Twenty-four hours after seeding, the cells are loaded with a calcium sensitive fluorescent dye by replacing the culture medium with assay buffer (1× Hanks buffered saline, 25 mM HEPES, 0.1% w/v fatty acid free BSA (bovine serum albumin), pH 7.4) containing 1 mM probenecid and 1× Calcium 5 Reagent (Molecular Devices). Cells are incubated at 37° C. for 1 hour to allow for dye uptake.
To test for antagonist activity, test compounds at a final concentration range between 0.32 nM-10 μM (diluted in assay buffer) are added to the assay wells and allowed to incubate for 10 minutes prior to stimulation with PK1. After incubation with test compounds the assay plate is placed in a FLIPR Tetra (Molecular Devices) and PK1 (diluted in assay buffer) is added at the determined EC80 concentration (final). Ligand-dependent changes in intracellular calcium levels are determined by measuring changes in fluorescence of the dye at […] following excitation at 485 nm.

human PKR1 receptors, sequence (Q8TCW9 whole entry): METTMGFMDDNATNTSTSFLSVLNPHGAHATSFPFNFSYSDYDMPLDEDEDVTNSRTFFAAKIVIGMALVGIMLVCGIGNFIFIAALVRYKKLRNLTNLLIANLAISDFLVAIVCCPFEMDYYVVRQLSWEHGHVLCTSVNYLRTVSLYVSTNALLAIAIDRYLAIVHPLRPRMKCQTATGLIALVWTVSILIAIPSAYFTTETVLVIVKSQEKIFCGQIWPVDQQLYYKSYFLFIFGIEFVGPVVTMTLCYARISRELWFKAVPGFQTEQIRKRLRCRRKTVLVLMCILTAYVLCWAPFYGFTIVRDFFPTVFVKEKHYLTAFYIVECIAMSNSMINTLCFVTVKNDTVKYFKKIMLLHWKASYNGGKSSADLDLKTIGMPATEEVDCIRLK

Structure (SMILES) | IC50 [nM]
Cc1[nH]nc(C2CC2)c1S(=O)(=O)N1CCC(Cc2ccc(Cl)c(F)c2)CC1 [Example 1, 4-(4-Chloro-3-fluorobenzyl)-1-((3-cyclopropyl-5-methyl-1H-pyrazol-4-yl)sulfonyl)piperidine] | 1370
COC(=O)C(=C1CCN(S(=O)(=O)c2c(C)n[nH]c2C)CC1)c1ccc(Cl)cc1 [Example 2, Methyl 2-(4-Chlorophenyl)-2-(1-((3,5-dimethyl-1H-pyrazol-4-yl)sulfonyl)piperidin-4-ylidene)acetate] | 3100
Cc1n[nH]c(C)c1S(=O)(=O)N1CCC(=C(C#N)c2ccc(Cl)cc2)CC1 [Example 3, 2-(4-Chlorophenyl)-2-(1-((3,5-dimethyl-1H-pyrazol-4-yl)sulfonyl)piperidin-4-ylidene)acetonitrile] | 40
Cc1n[nH]c(C)c1S(=O)(=O)N1CCC(=C(C#N)c2c(F)cccc2F)CC1 [Example 4, 2-(2,6-Difluorophenyl)-2-(1-((3,5-dimethyl-1H-pyrazol-4-yl)sulfonyl)piperidin-4-ylidene)acetonitrile] | 3680
Cc1n[nH]c(C)c1S(=O)(=O)N1CCC(=C(C#N)c2ccc(Cl)cc2F)CC1 [Example 5, 2-(4-Chloro-2-fluorophenyl)-2-(1-((3,5-dimethyl-1H-pyrazol-4-yl)sulfonyl)piperidin-4-ylidene)acetonitrile] | 180
CCc1n[nH]c(CC)c1S(=O)(=O)N1CCC(=C(C#N)c2ccc(Cl)cc2)CC1 [Example 6, 2-(4-Chlorophenyl)-2-(1-((3,5-diethyl-1H-pyrazol-4-yl)sulfonyl)piperidin-4-ylidene)acetonitrile] | 50
Cc1c(S(=O)(=O)N2CCC(=C(C#N)c3ccc(Cl)cc3)CC2)c(C(F)(F)F)nn1C [Example 7, 2-(4-Chlorophenyl)-2-(1-((1,5-dimethyl-3-(trifluoromethyl)-1H-pyrazol-4-yl)sulfonyl)piperidin-4-ylidene)acetonitrile] | 210
Cc1nn(C)c(C)c1S(=O)(=O)N1CCC(=C(C#N)c2c(F)cccc2F)CC1 [Example 8, 2-(2,6-Difluorophenyl)-2-(1-((1,3,5-trimethyl-1H-pyrazol-4-yl)sulfonyl)piperidin-4-ylidene)acetonitrile] | 5430
Cc1n[nH]c(C)c1S(=O)(=O)N1CCC(=C(C#N)c2ccc(OC(F)(F)F)cc2)CC1 [Example 9] | 150
Cc1n[nH]c(C)c1S(=O)(=O)N1CC/C(=C(\C#N)c2ccc(Cl)cc2)C(C)C1 (stereo not shown) [Example 10, 2-(4-Chlorophenyl)-2-(1-((3,5-dimethyl-1H-pyrazol-4-yl)sulfonyl)-3-methylpiperidin-4-ylidene) acetonitrile] | 470
Cc1n[nH]c(C)c1S(=O)(=O)N1CCC(=Cc2ccc(Cl)cc2F)CC1 [Example 11, 4-(4-Chloro-2-fluorobenzylidene)-1-((3,5-dimethyl-1H-pyrazol-4-yl)sulfonyl)piperidine] | 600
Cc1nn(C)c(C)c1S(=O)(=O)N1CCC(=Cc2ccc(Cl)cc2F)CC1 [Example 12, 4-(4-Chloro-2-fluorobenzylidene)-1-((1,3,5-trimethyl-1H-pyrazol-4-yl)sulfonyl)piperidine] | 550
CC(=C1CCN(S(=O)(=O)c2c(C)n[nH]c2C)CC1)c1ccc(Cl)cc1 [Example 13] | 760
Cc1n[nH]c(C)c1S(=O)(=O)N1CCC(=Cc2ccc(Cl)cc2)CC1 [Example 14, 4-(4-Chlorobenzylidene)-1-((3,5-dimethyl-1H-pyrazol-4-yl)sulfonyl)piperidine] | 760
Cc1nn(C)c(C)c1S(=O)(=O)N1CCC(=C(C#N)c2ccc(Cl)cc2)CC1 [Example 15, 2-(4-Chlorophenyl)-2-(1-((1,3,5-trimethyl-1H-pyrazol-4-yl)sulfonyl)piperidin-4-ylidene)acetonitrile] | 40
Cc1n[nH]c(C)c1S(=O)(=O)N1CCC(=C(F)c2ccc(Cl)cc2)CC1 [Example 16, 4-((4-Chlorophenyl)fluoromethylene)-1-((3,5-dimethyl-1H-pyrazol-4-yl)sulfonyl)piperidine] | 160
Cc1n[nH]c(C)c1S(=O)(=O)N1CCC(=C(F)c2ccc(F)c(Cl)c2)CC1 [Example 17, 4-((3-Chloro-4-fluorophenyl)fluoromethylene)-1-((3,5-dimethyl-1H-pyrazol-4-yl)sulfonyl) piperidine] | 1880
Cc1n[nH]c(C)c1S(=O)(=O)N1CCC(=C(F)c2ccc(Cl)cc2Cl)CC1 [Example 18, 4-((2,4-Dichlorophenyl)fluoromethylene)-1-((3,5-dimethyl-1H-pyrazol-4-yl)sulfonyl)piperidine] | 260
Cc1n[nH]c(C)c1S(=O)(=O)N1CCC(=C(F)c2ccc(Cl)c(Cl)c2)CC1 [Example 19, 4-((3,4-Dichlorophenyl)fluoromethylene)-1-((3,5-dimethyl-1H-pyrazol-4-yl)sulfonyl)piperidine] | 520
Cc1n[nH]c(C)c1S(=O)(=O)N1CCC(=C(F)c2ccc(Cl)c(F)c2)CC1 [Example 20, 4-((4-Chloro-3-fluorophenyl)fluoromethylene)-1-((3,5-dimethyl-1H-pyrazol-4-yl)sulfonyl)piperidine] | 190
Cc1n[nH]c(C)c1S(=O)(=O)N1CCC(=C(F)c2ccc(Cl)cc2F)CC1 [Example 21, 4-((4-Chloro-2-fluorophenyl)fluoromethylene)-1-((3,5-dimethyl-1H-pyrazol-4-yl)sulfonyl)piperidine] | 400
Cc1n[nH]c(C)c1S(=O)(=O)N1CCC(=C(F)c2cnc3ccccc3c2)CC1 [Example 23] | 60
